A short description of data set [1]: Lipophilicity, logD of compound in octanol/aqueous buffer at pH 7.4 incubated for 2 hrs by shake flask method. The format is physicochemical. To be noted: for logD at 2 h: octanol/aqueous buffer, pH 7.4.
The nature of data set [2]: Intrinsic clearance in human liver microsome at 1 uM incubated for 30 mins in presence of NADPH by LC-MS/MS analysis. Format: ADME, microsomes. To be noted: for microsomal CLint at 1 µM: liver microsomes, read-out: CLH. (Liver microsomes are vesicles of endoplasmic reticulum, rich in cytochrome P450 enzymes.)
Data set [3] addresses E3 ubiquitin-protein ligase CBL-B (Homo sapiens, UniProt Q13191). Put plainly: Inhibition of Cbl-b (unknown origin) by TR-FRET assay.

pIC50: −log10 of the molar value.

As a reminder, the logD is the decadic logarithm of the distribution of all forms, ionised or not, between an organic phase and buffer at a given pH. Read a low logD as a more hydrophilic compound. A word on the pIC50: it is the IC50 on a negative log10 scale, so that one unit is a factor of ten. A low value points to a high IC50.

Sequence of E3 ubiquitin-protein ligase CBL-B (Q13191 whole entry): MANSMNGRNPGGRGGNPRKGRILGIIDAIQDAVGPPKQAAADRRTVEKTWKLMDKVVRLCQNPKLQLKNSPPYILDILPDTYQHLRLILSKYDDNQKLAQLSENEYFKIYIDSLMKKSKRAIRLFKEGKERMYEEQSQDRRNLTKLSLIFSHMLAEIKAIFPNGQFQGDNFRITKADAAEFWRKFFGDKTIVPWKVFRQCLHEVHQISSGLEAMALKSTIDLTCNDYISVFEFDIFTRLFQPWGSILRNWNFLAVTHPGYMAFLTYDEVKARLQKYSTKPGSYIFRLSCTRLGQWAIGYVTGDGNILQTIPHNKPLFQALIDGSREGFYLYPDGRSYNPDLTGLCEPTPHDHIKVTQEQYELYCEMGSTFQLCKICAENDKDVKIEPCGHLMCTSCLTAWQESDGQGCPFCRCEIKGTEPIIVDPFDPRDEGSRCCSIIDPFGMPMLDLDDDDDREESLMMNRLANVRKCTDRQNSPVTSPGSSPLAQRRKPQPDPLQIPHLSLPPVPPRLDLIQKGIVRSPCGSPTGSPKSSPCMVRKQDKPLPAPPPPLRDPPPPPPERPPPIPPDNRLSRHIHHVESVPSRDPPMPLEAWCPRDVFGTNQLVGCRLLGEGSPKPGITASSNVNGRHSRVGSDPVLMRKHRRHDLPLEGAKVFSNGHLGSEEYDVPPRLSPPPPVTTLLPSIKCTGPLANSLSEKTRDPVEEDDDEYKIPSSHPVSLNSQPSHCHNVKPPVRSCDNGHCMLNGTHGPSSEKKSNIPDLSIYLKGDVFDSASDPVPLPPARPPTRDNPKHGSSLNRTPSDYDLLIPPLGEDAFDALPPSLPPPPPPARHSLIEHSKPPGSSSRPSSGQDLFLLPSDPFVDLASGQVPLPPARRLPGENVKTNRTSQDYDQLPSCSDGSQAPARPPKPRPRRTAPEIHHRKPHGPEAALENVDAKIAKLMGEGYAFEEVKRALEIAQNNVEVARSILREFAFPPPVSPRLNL

Consider `O=C1NCC[C@@](c2cccc(-c3cc(C(F)(F)F)c[nH]c3=O)c2)(C2CC2)O1`, for which the logD at 2 h in data set [1] is 2.1. Also, the microsomal CLint at 1 µM in data set [2] was found to be 35 µL/min/mg. Moreover, the pIC50 in data set [3] was 5.09.
In the case of `Cc1cc(C(=O)Nc2cccc([C@]3(C)CCNC(=O)O3)c2)nc(C2CC2)n1`, the logD at 2 h in data set [1] was 2.5. The microsomal CLint at 1 µM in data set [2] is 5.9 µL/min/mg. Further, the pIC50 in data set [3] was 5.32.
In data set [1], `Cc1cc(C(=O)Nc2cccc([C@]3(C)CCNC(=O)C3)c2)nc(C2CC2)n1` came in with a logD at 2 h of 2.7. The microsomal CLint at 1 µM in data set [2] turned out to be 34 µL/min/mg. Moreover, the pIC50 in data set [3] was 4.55.
Taken in the same sequence, the figures for `CC[C@]1(c2cccc(NC(=O)c3cc(C)nc(C4CC4)n3)c2)CCNC(=O)O1` were 2.9, 54 µL/min/mg and under 4.00.
In the case of `CNC(=O)[C@]1(c2cccc(-n3nc4c(C(F)(F)F)cc(CN5CCC[C@H](C)C5)cn4c3=O)c2)C[C@H](C)C1`, in data set [1], the logD at 2 h came out at 4.3. Besides, the microsomal CLint at 1 µM in data set [2] was over 300 µL/min/mg. This compound also showed a pIC50 in data set [3] of 5.19.
Taken in the same sequence, the figures for `C[C@H]1CCCN(Cc2cc(C(F)(F)F)c3nn(-c4cccc(C5(C)CC(=O)NC(=O)C5)c4)c(=O)n3c2)C1` were 3.2, over 300 µL/min/mg and 5.18.
`Cc1cc(C(=O)Nc2cccc(C3(C)CNC(=O)O3)c2)nc(C2CC2)n1` (single isomer, unassigned; 14) returned a logD at 2 h in data set [1] of 2.7. The microsomal CLint at 1 µM in data set [2] was determined as 16 µL/min/mg. This compound also had a pIC50 in data set [3] of under 4.00.
`C[C@H]1CCCN(Cc2cc3c(c(C(F)(F)F)c2)CN(c2cccc([C@]4(c5nncn5C)C[C@@H](C)C4)c2)C3=O)C1` displayed a logD at 2 h in data set [1] of 4. For the same compound, the microsomal CLint at 1 µM in data set [2] is 130 µL/min/mg.
With `Cc1cc(C(=O)Nc2cccc([C@]3(C4CC4)CCNC(=O)O3)c2)nc(C2CC2)n1`, the log distribution coefficient (logD) at 2 h in data set [1] was 3. In addition, in data set [2], the microsomal CLint at 1 µM is 25 µL/min/mg. In addition, in data set [3], the pIC50 was 6.77.
Taken in the same sequence, the figures for `O=C1NCC[C@](c2cccc(-c3cc(C(F)(F)F)c[nH]c3=O)c2)(C2CC2)O1` were 2.2, 18 µL/min/mg and 7.04.
Taken in the same sequence, the figures for `Cc1cc(C(=O)Nc2cccc([C@@]3(C)CCNC(=O)O3)c2)nc(C2CC2)n1` were 2.4, 7.7 µL/min/mg and under 4.00.
In the same order, the values of `C[C@H]1CCCN(Cc2cc(C(F)(F)F)c3nn(-c4cccc([C@]5(C)CCNC(=O)C5)c4)c(=O)n3c2)C1` are 3.5, 170 µL/min/mg and 5.92.
Consider `C[C@H]1CCCN(Cc2cc(C(F)(F)F)c3nn(-c4cccc([C@]5(C6CC6)CCNC(=O)O5)c4)c(=O)n3c2)C1`, for which, in data set [1], the logD at 2 h came out at 3.7. For the same compound, the microsomal CLint at 1 µM in data set [2] came to 260 µL/min/mg. In addition, the pIC50 in data set [3] is 8.15.
`CC[C@@]1(c2cccc(NC(=O)c3cc(C)nc(C4CC4)n3)c2)CCNC(=O)O1`: the logD at 2 h in data set [1] worked out at 3. The microsomal CLint at 1 µM in data set [2] worked out at 27 µL/min/mg. For the same compound, in data set [3], the pIC50 is 5.85.
Take `Cc1cc(C(=O)Nc2cccc(C3(C)CNC(=O)O3)c2)nc(C2CC2)n1` (single isomer, unassigned; 15): the logD in data set [1] (octanol/water, pH 7.4, 2 h, 2 h) came out at 2.6. Besides, in data set [2] (microsomes, 0.5 h, 1 µM), the CLH worked out at 10 µL/min/mg. Also, the pIC50 in data set [3] is under 4.00.
`CC1CC(c2cccc(-n3nc4c(C(F)(F)F)cc(CN5CCC[C@H](C)C5)cn4c3=O)c2)(n2cccn2)C1` (some centres not stated) returned a logD at 2 h in data set [1] of 5.3. Also, the microsomal CLint at 1 µM in data set [2] is over 300 µL/min/mg. For the same compound, the pIC50 in data set [3] was under 5.00.
Take `C[C@H]1CCCN(Cc2cc(C(F)(F)F)c3nn(-c4cccc([C@@]5(C)CCNC(=O)C5)c4)c(=O)n3c2)C1`: the logD at 2 h in data set [1] came out at 3.4. Also, the microsomal CLint at 1 µM in data set [2] was determined as 230 µL/min/mg. Besides, the pIC50 in data set [3] is 4.43.
Turning to `Cc1cc(C(=O)Nc2cccc([C@@]3(C)CCNC(=O)C3)c2)nc(C2CC2)n1`, the logD at 2 h in data set [1] is 2.7. In data set [2], the microsomal CLint at 1 µM came to 23 µL/min/mg. Besides, the pIC50 in data set [3] was 4.48.
For the compound `Cc1cc(C(=O)Nc2cccc(C3(C)CCNC(=O)N3C)c2)nc(C2CC2)n1` (racemic), in data set [1], the logD at 2 h was 2.7. Further, the microsomal CLint at 1 µM in data set [2] was found to be 75 µL/min/mg. In addition, the pIC50 in data set [3] was under 4.00.
For the compound `C[C@H]1CCCN(Cc2cc(C(F)(F)F)c3nn(-c4cccc([C@]5(C(=O)N(C)C)C[C@@H](C)C5)c4)c(=O)n3c2)C1`, in data set [1], the log distribution coefficient (logD) at 2 h came to 4.9. Further, in data set [2], the microsomal CLint at 1 µM is over 300 µL/min/mg. Moreover, the negative logarithm of the IC50 (pIC50) in data set [3] is 5.68.
`Cc1cc(C(=O)Nc2cccc([C@]3(c4nncn4C)C[C@@H](C)C3)c2)nc(C2CC2)n1` had a logD at 2 h in data set [1] of 3.2. In data set [2], the microsomal CLint at 1 µM was 35 µL/min/mg. For the same compound, the pIC50 in data set [3] is 6.80.
Taken in the same sequence, the figures for `Cc1cc(C(=O)Nc2cccc(C3(C)CCNC(=O)N3)c2)nc(C2CC2)n1` (racemic) were 2.4, 6.6 µL/min/mg and under 4.00.
Taken in the same sequence, the figures for `C[C@H]1CCCN(Cc2cc(C(F)(F)F)c3nn(-c4cccc([C@@]5(C6CC6)CCNC(=O)O5)c4)c(=O)n3c2)C1` were 3.8, over 300 µL/min/mg and 5.11.
Turning to `C[C@H]1CCCN(Cc2cc(C(F)(F)F)c3nn(-c4cccc([C@]5(c6nncn6C)C[C@@H](C)C5)c4)c(=O)n3c2)C1`, the logD at 2 h in data set [1] amounted to 3.9. In data set [2], the microsomal CLint at 1 µM came to 160 µL/min/mg. In data set [3], this compound had a pIC50 of 7.96.
`Cc1cc(C(=O)Nc2cccc([C@@]3(C4CC4)CCNC(=O)O3)c2)nc(C2CC2)n1` registered a log distribution coefficient (logD) at 2 h in data set [1] of 3. Besides, the microsomal CLint at 1 µM in data set [2] was found to be 61 µL/min/mg. Further, the pIC50 in data set [3] was under 4.00.
For `Cn1cnnc1[C@]1(c2cccc(-n3nc4c(C(F)(F)F)cccn4c3=O)c2)C[C@H](C)C1`, the logD at 2 h in data set [1] was 2.7. Also, the microsomal CLint at 1 µM in data set [2] is 48 µL/min/mg. Further, in data set [3], the negative logarithm of the IC50 (pIC50) was 6.64.

The values are drawn from ChEMBL document CHEMBL5576144, “Accelerated Discovery of Carbamate Cbl-b Inhibitors Using Generative AI Models and Structure-Based Drug Design” (J Med Chem, 2024).
